According to article PMC4336611 (Chemistry & biology, 2015):

Target: LPA2 (Homo sapiens, UniProt Q9HBW0)
Format: cell-based

Chain of LPA2 (Q9HBW0 whole entry): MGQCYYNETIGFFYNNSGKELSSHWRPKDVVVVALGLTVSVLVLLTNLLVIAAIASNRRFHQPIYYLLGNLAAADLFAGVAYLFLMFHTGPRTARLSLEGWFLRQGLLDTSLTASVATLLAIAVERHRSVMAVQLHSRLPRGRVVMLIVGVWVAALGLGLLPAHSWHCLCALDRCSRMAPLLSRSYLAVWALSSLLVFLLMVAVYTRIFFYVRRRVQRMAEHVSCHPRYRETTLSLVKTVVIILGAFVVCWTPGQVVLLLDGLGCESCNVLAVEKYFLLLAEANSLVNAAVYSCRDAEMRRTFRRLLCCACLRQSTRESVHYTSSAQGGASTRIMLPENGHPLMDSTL

EC50: ~100 nM
Compound: O=C(O)c1ccccc1S(=O)(=O)NCCCCN1C(=O)c2cccc3cccc(c23)C1=O [DBIBB, 2-[4-(1,3-Dioxo-1H,3H-benzo[de]isoquinolin-2-yl)butylsulfamoyl] benzoic acid]
